This passage reports Ki results from BindingDB's records for doi:10.1016/j.bmcl.2006.08.117 (Johnson & Johnson Pharmaceutical, 2006).

For the assay, the target named is Histamine H4 receptor (Homo sapiens, UniProt Q9H3N8). Put plainly: Radioligand Binding Assay. The following applies: pH 7.5; 25 °C. The method, then: The Ki values were calculated based on an experimentally determined appropriate Kd value according to Cheng and Prusoff.
Sequence of Histamine H4 receptor (Q9H3N8 whole entry): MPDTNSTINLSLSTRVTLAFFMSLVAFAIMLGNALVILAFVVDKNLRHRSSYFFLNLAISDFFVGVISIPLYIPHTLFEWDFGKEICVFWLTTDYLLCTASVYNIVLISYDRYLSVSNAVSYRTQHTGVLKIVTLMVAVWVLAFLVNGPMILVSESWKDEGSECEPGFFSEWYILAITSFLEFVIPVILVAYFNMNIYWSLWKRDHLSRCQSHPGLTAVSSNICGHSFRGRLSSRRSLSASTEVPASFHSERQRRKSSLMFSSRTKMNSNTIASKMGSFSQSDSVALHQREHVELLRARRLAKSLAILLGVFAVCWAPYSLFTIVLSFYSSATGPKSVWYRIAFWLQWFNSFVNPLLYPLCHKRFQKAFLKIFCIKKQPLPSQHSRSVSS

As to `CN1CCN(CCCOc2ccc(-c3nc4cc(Cl)ccc4[nH]3)cc2)CC1` [5-chloro-2-{4-[3-(4-methylpiperazin-1-yl)propoxy]phenyl}-1H-1,3-benzodiazole], the inhibitory constant (Ki) was 124 nM.
